According to US10568892B2, “Cycloartane tetracyclic triterpenoid compound, preparation method therefor and use thereof” (Hefei Cosource Pharmaceuticals Inc., priority 2016, dated 2020):

System: ventricular papillary muscle cell of guinea pig
Experiment: Action potential of the ventricular papillary muscle cell of guinea pig (electrophysiological recording)
Format: cell-based
Conditions: screening stage; for percent change in action potential duration at 0.0005 µM / percent change in action potential duration at 0.005 µM / percent change in action potential duration at 0.05 µM: Cavia porcellus, 20 min, read-out: APD, Change rate (%); for Effect on the APD value of the action potential of the papillary muscle (in words): Table 3 summary; for APD, Post-administration: about 20 min perfusion
Description: Method: One guinea pig was taken to violently hit the back of the brain such that it fainted. The common carotid artery was cut off for bleeding to kill the guinea pig. The chest was incised to expose the heart, and the ventricle was cut open along the interventricular septum to expose the lumen of the left ventricle. The papillary muscles were quickly taken out and placed in a Kreb's solution saturated with O2 (mixed gas of 95% O2 and 5% CO2) at 0° C. After the microscopic dressing, the papillary muscle specimen was fixed with a stainless steel needle on the silicone rubber at the bottom of the perfusion bath, and perfused with the oxygen-saturated Kreb's solution. The relevant parameters for perfusion: the temperature was 37±0.5° C., and the flow rate was 4 mL/min.
Cellular action potentials were recorded using a conventional electrophysiological method. The glass electrode filled with 3M KCl saturated solution and having a tip resistance of 15-30 MΩ was fixed on the microelectrode manipulator MP-2. The glass electrode was gently inserted into the superficial layer of the prepared papillary muscle specimen using a microelectrode pusher. The electrode was adjusted to provide the predetermined bioelectrical stimulation with the triple-channel SEN-7203 electronic stimulator and SS-202 J isolator. The bioelectrical signal was amplified by the MEZ-8301 amplifier and then input to the computerized electrophysiological recording and analysis system Powerlab 4/25. Subsequently, the relevant parameters of the action potential for the ventricular papillary muscle were analyzed through the analysis system. The relevant parameters for electrical stimulation: 30 ms latency, 7 ms wavewidth, 1 Hz frequency, 52.1 my stimulation intensity.
In the compound screening test stage, after the ventricular papillary muscle specimen of the guinea pig was fixed, it was first perfused with a normal Kreb's solution for about 85 minutes for stabilization, and the relevant parameters of the cellular action potential before administration were recorded at about 80 min after the start of perfusion. The three-limb tube was used to convert the perfusates containing the title compounds. The title compounds were continuously perfused for about 25 min successively with low (0.0005 μM), medium (0.005 μM), and high (0.05 μM) concentrations, respectively. At about 20 min after the start of drug perfusions at different concentrations, the relevant parameters of the action potentials for the ventricular papillary muscle of guinea pig were observed and recorded, respectively. The normal Kreb's solution was used to perfuse and elute for about 25 min during the intervals between drug perfusions at different concentrations.
The experiment was divided into the following five groups with 6 animals in each group: a vehicle control group, a 369 low dose (0.0005 μM) group, a 369 medium dose (0.005 μM) group, a 369 high dose (0.05 μM) group, and an amiodarone (10 μM) positive control group. After the ventricular papillary muscle specimen of the guinea pig was fixed, it was first perfused with a normal Kreb's solution for about 85 minutes for stabilization, and the relevant parameters of the cellular action potential before administration were recorded at about 80 min after the start of perfusion. According to groups, the three-limb tube was configured to convert the perfusates containing the vehicle, positive control, or Compound 369 at the corresponding concentrations to continuously perfuse for about 25 min. At about 20 min after the start of the perfusions, the relevant parameters of the action potentials for the ventricular papillary muscle of guinea pig were observed and recorded.

Compound	percent change in action potential duration at 0.0005 µM (0.0005 μM) [%]	percent change in action potential duration at 0.005 µM (0.005 μM) [%]	Effect on the APD value of the action potential of the papillary muscle (in words)	APD, Post-administration (0.0005 μM)	APD, Post-administration (0.005 μM)	percent change in action potential duration at 0.05 µM (0.05 μM) [%]	APD, Post-administration (0.05 μM)
CC(=O)C1=CC[C@@]2(C)[C@@H]3CC[C@H]4C(C)(C)[C@@H](N(C)C)CC[C@@]45C[C@@]35CC[C@]12C [Compound 383, (3β,5α)-4,4,14-trimethyl-3-(dimethylamino)-9,19-cyclopregnan-16-en-20-one]	16.3	29	a certain degree of prolonged effects	0.0943	0.1024		
CN[C@H]1CC[C@]23C[C@]24CC[C@]2(C)C(C(C)=O)=C(C)C[C@@]2(C)[C@@H]4CC[C@H]3C1(C)C [Compound 383a, (3β,5α)-4,4,14,16-tetramethyl-3-(methylamino)-9,19-cyclopregnan-16-en-20-one]	4.02	33	a certain degree of prolonged effects	0.0751	0.0943	30	0.0948
CN[C@H]1CC[C@]23C[C@]24CC[C@]2(C)C(/C(C)=N\O)=CC[C@@]2(C)[C@@H]4CC[C@H]3C1(C)C [Compound 384, (3β,5α)-4,4,14-trimethyl-3-(methylamino)-9,19-cyclopregnan-16-en-20-one oxime]	21.2	38.6	a certain degree of prolonged effects	0.0890	0.0988	41.3	0.1047
CN[C@H]1CC[C@]23C[C@]24CC[C@]2(C)C(C(=O)CO)=CC[C@@]2(C)[C@@H]4CC[C@H]3C1(C)C [Compound 385, (3β,5α)-4,4,14-trimethyl-21-hydroxy-3-(methylamino)-9,19-cyclopregnan-16-en-20-one]	16.4	27.4	a certain degree of prolonged effects	0.0796	0.0893	40.1	0.975
CN[C@H]1CC[C@]23C[C@]24CC[C@]2(C)C(C(C)=O)=C(F)C[C@@]2(C)[C@@H]4CC[C@H]3C1(C)C [Compound 387, (3β,5α)-4,4,14-trimethyl-16-fluoro-3-(methylamino)-9,19-cyclopregnan-16-en-20-one]	8.49	19.8	a certain degree of prolonged effects	0.0869	0.0944	24.2	0.0985
CCN(C)[C@H]1CC[C@]23C[C@]24CC[C@]2(C)C(C(C)=O)=CC[C@@]2(C)[C@@H]4CC[C@H]3C1(C)C [Compound 397, (3β,5α)-4,4,14-trimethyl-3-(methylethylamino)-9,19-cyclopregnan-16-en-20-one]	7.68	-3		0.0785	0.0711	11.8	0.0841
CN[C@H]1CC[C@]23C[C@]24CC[C@]2(C)C(/C(C)=N\OC)=CC[C@@]2(C)[C@@H]4CC[C@H]3C1(C)C [Compound 398, (3β,5α)-4,4,14-trimethyl-3-(methylamino)-20-methoxyimino-9,19-cyclopregnan-16-ene]	-0.86	6.63		0.0695	0.771	9.46	0.764
CN(C)[C@H]1CC[C@]23C[C@]24CC[C@]2(C)C(C(=O)CO)=CC[C@@]2(C)[C@@H]4CC[C@H]3C1(C)C [Compound 399a, (3β,5α)-4,4,14-trimethyl-21-hydroxy-3-(dimethylamino)-9,19-cyclopregnan-16-en-20-one]	24.4	28.5	a certain degree of prolonged effects	0.0960	0.1010	38.4	0.1103
CC(=O)C1=CC[C@@]2(C)[C@@H]3CC[C@H]4C(C)(C)[C@@H](N(C)C5CC5)CC[C@@]45C[C@@]35CC[C@]12C [Compound 409, (3β,5α)-4,4,14-trimethyl-3-(methylcyclopropylamino)-9,19-cyclopregnan-16-en-20-one]	1.84	3.25		0.0773	0.0762	6.07	0.0786
CN[C@H]1CC[C@]23C[C@]24CC[C@]2(C)C(C(=O)COC(C)=O)=CC[C@@]2(C)[C@@H]4CC[C@H]3C1(C)C [Compound 427, (3β,5α)-4,4,14-trimethyl-21-acetoxy-3-(methylamino)-9,19-cyclopregnan-16-en-20-one]	18.2	20.6	a certain degree of prolonged effects	0.0903	0.0929	42.9	0.1073
CN[C@H]1CC[C@]23C[C@]24CC[C@]2(C)C(C(=O)COC(=O)c5ccccc5)=CC[C@@]2(C)[C@@H]4CC[C@H]3C1(C)C [Compound 489, (3β,5α)-4,4,14-trimethyl-3-(methylamino)-21-(benzoyloxy)-9,19-cyclopregnan-16-en-20-one]	-2.09	1.85		0.0750	0.0771	9.63	0.820
CN[C@H]1CC[C@]23C[C@]24CC[C@]2(C)C(C(=O)COC(=O)CCC(=O)O)=CC[C@@]2(C)[C@@H]4CC[C@H]3C1(C)C.Cl [Compound 522, (3β,5α)-4,4,14-trimethyl-3-(methylamino)-21-(3-carboxypropionyloxy)-9,19-cyclopregnan-16-en-20-one hydrochloride]	2.87	27.2	a certain degree of prolonged effects	0.0824	0.0996	36	0.1102
CN[C@H]1CC[C@]23C[C@]24CC[C@]2(C)C(C(=O)COC(=O)c5ccccc5C(=O)O)=CC[C@@]2(C)[C@@H]4CC[C@H]3C1(C)C.Cl [Compound 570, (3β,5α)-4,4,14-trimethyl-3-(methylamino)-21-(2-carboxybenzoyloxy)-9,19-cyclopregnan-16-en-20-one hydrochloride]	12.3	21.8	a certain degree of prolonged effects	0.0813	0.0850	30.5	0.928
